The numbers were not newly measured in patent US20220378773A1, “METHODS FOR TREATING LEUKEMIA AND USE OF A LEUKEMIC STEM CELL SIGNATURE TO PREDICT CLINICAL SENSITIVITY TO THERAPIES” (CELGENE CORPORATION, priority 2019, published 2022), which cites them from elsewhere.

The conditions of series [1]: relative humidity increased from about 0% to about 90% RH; cited from earlier work.
Series [2] concerns acute myeloid leukemia (AML) at relapse. Particulars: administered alone; cited from earlier work.

For `O=C1CCC(N2Cc3cc(CNC(=O)C(F)(F)c4ccc(Cl)cc4)ccc3C2=O)C(=O)N1` (stereo not shown) [Form A, 2-(4-chlorophenyl)-N-((2-(2,6-dioxopiperidin-3-yl)-1-oxoisoindolin-5-yl)methyl)-2,2-difluoroacetamide], the water uptake result in series [1] is reported as “about 1.2 % w/w”.
Turning to `O=C1CCC(N2Cc3cc(CNC(=O)C(F)(F)c4ccc(Cl)cc4)ccc3C2=O)C(=O)N1` (stereo not shown) [Form B, 2-(4-chlorophenyl)-N-((2-(2,6-dioxopiperidin-3-yl)-1-oxoisoindolin-5-yl)methyl)-2,2-difluoroacetamide], the water uptake entry in series [1] is “about 1.4 % w/w”.
Take `O=C1CCC(N2Cc3cc(CNC(=O)C(F)(F)c4ccc(Cl)cc4)ccc3C2=O)C(=O)N1` (stereo not shown) [Form C, 2-(4-chlorophenyl)-N-((2-(2,6-dioxopiperidin-3-yl)-1-oxoisoindolin-5-yl)methyl)-2,2-difluoroacetamide]: the water uptake entry in series [1] was “about 0.6 % w/w”.
Take “CT-011: anti-PD-1 antibody, a humanized antibody”: the “response in treating AML at relapse” value in series [2] is on record as “failed to show response”.
